Results reported in patent US20250000854A1, “4-(Aminomethyl)-6-(1-Methyl-1H-Pyrazol-4-YL)Isoquinolin-1(2H)-One Derivatives as MTA-Cooperative Inhibitors of PRMT5” (BeiGene, Ltd., priority 2022, published 2025).
Where a name gives a salt, the structure may show the parent alone.

Columns and labels:
[1] = target: T1, human PRMT5/MEP50 enzyme (Homo sapiens (Human), UniProt O14744); assay: PRMT5 Biochemical Assay (TR-FRET) in the absence of MTA; details: without MTA; 10 nM PRMT5/MEP50, 3 μM S-adenosylmethionine, histone H4 peptide
Experimental: (§1) The assay measures the methylation activity of purified human PRMT5/MEP50 enzyme toward histone H4-R3. Compounds disclosed herein were tested for inhibition of PRMT5/MEP50 using PRMT5 TR-FRET Assay Kit (BPS Bioscience) which contains a highly specific antibody that recognizes methylated substrates. The assay was carried out in 384-well low volume black plates in a reaction mixture containing 10 nM PRMT5/MEP50 complex, biotinylated histone H4 peptide, 3 μM S-adenosylmethionine and 0-10 μM compound in buffer containing 50 mM Tris-HCl buffer (pH 8.5), 0.005% BSA, 1 mM TCEP and 0.002% Tween-20. The PRMT5/MEP50 enzyme was incubated with compounds disclosed herein and biotinylated histone H4 peptide for 20 minutes at room temperature. The reaction was initiated by addition of S-adenosylmethionine. After reacting at room temperature for 120 minutes, the detection solution containing Eu-labeled antibody and dye-labeled acceptor in detection buffer was added to the reaction mixture. Plates were sealed and incubated at room temperature for 60 minutes, and the TR-FRET signals (excitation 337 nm, emission 665/620 nm) were recorded on a PHERAstar FSX plate reader (BMG Labtech). The inhibition percentage of PRMT5/MEP50 activity in presence of increasing concentrations of compounds was calculated based on the ratio of fluorescence at 665 nm to that at 620 nm. The IC50 value for each compound was derived from fitting the dose-response % inhibition data to the four-parameter logistic model by Dotmatics. And the compounds were tested in the presence and absence of MTA to evaluate whether the compounds display MTA-cooperative activity.

[2] = target: T1, human PRMT5/MEP50 enzyme; assay: PRMT5 Biochemical Assay (TR-FRET) in the presence of MTA; details: with 800 nM MTA; 10 nM PRMT5/MEP50, 3 μM S-adenosylmethionine, histone H4 peptide
Experimental: as §1

T1 sequence (O14744 whole entry): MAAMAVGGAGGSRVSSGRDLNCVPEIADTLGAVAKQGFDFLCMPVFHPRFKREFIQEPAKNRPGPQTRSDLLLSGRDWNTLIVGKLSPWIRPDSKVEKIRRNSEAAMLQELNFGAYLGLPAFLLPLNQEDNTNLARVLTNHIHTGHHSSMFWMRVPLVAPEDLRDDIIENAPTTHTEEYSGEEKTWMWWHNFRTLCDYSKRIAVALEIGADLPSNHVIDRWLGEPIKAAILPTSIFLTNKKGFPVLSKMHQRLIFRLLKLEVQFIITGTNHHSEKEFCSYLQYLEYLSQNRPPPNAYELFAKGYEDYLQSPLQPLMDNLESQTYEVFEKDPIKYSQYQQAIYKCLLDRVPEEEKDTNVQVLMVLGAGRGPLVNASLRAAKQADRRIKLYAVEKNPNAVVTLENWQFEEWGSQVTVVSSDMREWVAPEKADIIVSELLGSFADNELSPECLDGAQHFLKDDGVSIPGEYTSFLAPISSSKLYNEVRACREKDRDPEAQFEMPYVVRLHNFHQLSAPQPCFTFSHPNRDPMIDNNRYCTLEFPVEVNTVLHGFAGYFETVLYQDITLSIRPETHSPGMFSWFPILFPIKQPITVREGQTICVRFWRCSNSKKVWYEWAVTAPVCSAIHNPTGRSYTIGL
T1 sequence (Q9BQA1 whole entry partner): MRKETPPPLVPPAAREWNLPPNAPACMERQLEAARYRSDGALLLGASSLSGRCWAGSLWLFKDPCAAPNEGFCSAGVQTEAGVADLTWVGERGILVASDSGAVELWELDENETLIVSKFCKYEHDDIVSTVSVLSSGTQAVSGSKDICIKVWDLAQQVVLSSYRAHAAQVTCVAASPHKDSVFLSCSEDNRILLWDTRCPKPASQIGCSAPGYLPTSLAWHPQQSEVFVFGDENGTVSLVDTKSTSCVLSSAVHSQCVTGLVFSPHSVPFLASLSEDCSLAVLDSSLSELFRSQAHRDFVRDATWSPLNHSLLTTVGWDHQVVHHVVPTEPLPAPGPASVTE

SMILES | IC50 [1] | IC50 [2]
Cn1ncc(-c2ccc3c(=O)[nH]cc(CN)c3c2)c1-c1cccc(OC2CC2)c1C#N [Example 6, 2-(4-(4-(aminomethyl)-1-oxo-1,2-dihydroisoquinolin-6-yl)-1-methyl-1H-pyrazol-5-yl)-6-cyclopropoxybenzonitrile hydrochloride] | 87 nM | 3.5 nM
Cn1ncc(-c2ccc3c(=O)[nH]cc(CN)c3c2)c1-c1cc(C(F)(F)F)cc(OC2CC2)c1C#N [Example 7, 2-(4-(4-(aminomethyl)-1-oxo-1,2-dihydroisoquinolin-6-yl)-1-methyl-1H-pyrazol-5-yl)-6-cyclopropoxy-4-(trifluoromethyl)benzonitrile hydrochloride] | 165 nM | 6.2 nM
Cn1ncc(-c2ccc3c(=O)[nH]cc(CN)c3c2)c1-c1cc(Cl)cc(OC2CC2)c1C#N [Example 2, 2-(4-(4-(aminomethyl)-1-oxo-1,2-dihydroisoquinolin-6-yl)-1-methyl-1H-pyrazol-5-yl)-4-chloro-6-cyclopropoxybenzonitrile hydrochloride] | 77 nM | 3.3 nM

Compounds with a lower IC50 [1], results first:

IC50 [1] | IC50 [2] | SMILES
29 nM | 3.2 nM | Cn1ncc(-c2ccc3c(=O)[nH]cc(CN)c3c2)c1-c1c(F)cc2ccccc2c1C#N [Example 1, 2-(4-(4-(aminomethyl)-1-oxo-1,2-dihydroisoquinolin-6-yl)-1-methyl-1H-pyrazol-5-yl)-3-fluoro-1-naphthonitrile]
29 nM | 2.7 nM | Cc1cc(-c2c(-c3ccc4c(=O)[nH]cc(CN)c4c3)cnn2C)c(C#N)c2ccccc12 [Example 4, 2-(4-(4-(aminomethyl)-1-oxo-1,2-dihydroisoquinolin-6-yl)-1-methyl-1H-pyrazol-5-yl)-4-methyl-1-naphthonitrile hydrochloride]
68 nM | 7.6 nM | Cn1ncc(-c2ccc3c(=O)[nH]cc(CN)c3c2)c1-c1c(F)c(Cl)cc(OC2CC2)c1C#N [Example 3, 2-(4-(4-(aminomethyl)-1-oxo-1,2-dihydroisoquinolin-6-yl)-1-methyl-1H-pyrazol-5-yl)-4-chloro-6-cyclopropoxy-3-fluorobenzonitrile hydrochloride]
27 nM | 2.7 nM | Cn1ncc(-c2ccc3c(=O)[nH]cc(CN)c3c2)c1-c1cc(Cl)c2ccccc2c1C#N [Example 5, 2-(4-(4-(aminomethyl)-1-oxo-1,2-dihydroisoquinolin-6-yl)-1-methyl-1H-pyrazol-5-yl)-4-chloro-1-naphthonitrile hydrochloride]
